One data set has as its system MDA-MB-231. As to the kind of experiment: Cell proliferation, CTG 3D, 7 d. It counts as cell-based. The conditions noted are these: Homo sapiens. On the procedure: (§1) On Day-1, cells were plated in 384-well round-bottom ultra-low adhesion plates (cat. Corning 3830, with cell density adjusted according to Table 3. The assay plate was then centrifuged at 1000 rpm for 1 minute to ensure even distribution of cells. The plate was incubated at 37° C. in a 5% CO2 atmosphere (It is worth noting that for SW1271 cell plate, it needs to be incubated in an incubator without additional CO2).
(§2) On Day 0, Example 24 or A122 was added to each well using a Tecan HP D300E dispenser, with a 3-fold dilution across 9 doses. The final concentration of DMSO was normalized to 0.2%. The assay plate was then centrifuged at 1000 rpm for 1 minute and incubated for 7 days.
(§3) On Day 7, CellTiter-Glo (CTG) 3D reagent (Promega G9683) was dispensed into each well of a 384-well plate using a multi-drop dispenser (Thermo Scientific 66413). A liquid handling automation workstation (Bravo with a 384-well head) was used to mix the CTG reagents. Plates were left on a shaker for 30 minutes at 450 rpm, shielded from light.
(§4) For data analysis, the XL-fit software (Supplier: ID Business Solutions Ltd., Software version: XL fit 5.0) was utilized. The percentage of inhibition was calculated using the formula: Inhibition %=(Max-Sample value)/(Max-Min)×100. Curve fitting was performed as follows: For complete dose-response curves, the relative IC50 was reported from the fit. For incomplete curves, if minimal inhibition was greater than 50%, an IC50 less than the lowest compound concentration was reported. If minimal inhibition was between 20% and 50%, the bottom was locked at 0% and the IC50 was reported. If maximal inhibition was less than 50%, an IC50 greater than the highest compound concentration was reported.

The test system of the next data set is Hs-766T. Put plainly: Cell proliferation, CTG 3D, 7 d. The note with it: Homo sapiens, Hs766T. It counts as cell-based. How it is done: as §1, §2, §3, §4
The test system of the next data set is ONS-76. Put plainly: Cell proliferation, CTG 3D, 7 d. It counts as cell-based. The note with it: Homo sapiens. How it is done: as §1, §2, §3, §4
The next data set deals with SW 900. Put plainly: Cell proliferation, CTG 3D, 7 d. It counts as cell-based. The note with it: Homo sapiens, SW900; SW 900, KRAS (G12V). On the procedure:
as §1, §2, §3, §4

The test system of the next data set is RKN. As to the kind of experiment: Cell proliferation, CTG 3D, 7 d. It counts as cell-based. The conditions noted are these: Homo sapiens, KRAS (G12V). On the procedure:
as §1, §2, §3, §4

Another data set relates to LCLC-97TM1. As to the kind of experiment: Cell proliferation, CTG 3D, 7 d. The conditions noted are these: Homo sapiens; LCLC-97TM1, KRAS (G12V). It counts as cell-based. On the procedure: as §1, §2, §3, §4
The test system of a further data set is Capan-2. Put plainly: Cell proliferation, CTG 3D, 7 d. It counts as cell-based. The conditions noted are these: Homo sapiens. How it is done: as §1, §2, §3, §4
For a further data set, the system named is NCI-H23. Put plainly: Cell proliferation, CTG 3D, 7 d. It counts as cell-based. The note with it: Homo sapiens; NCI-H23, KRAS (G12C). On the procedure: as §1, §2, §3, §4
The next data set concerns PANC-1. As to the kind of experiment: Cell proliferation, CTG 3D, 7 d. It counts as cell-based. The conditions noted are these: Homo sapiens; PANC-1, KRAS (G12D). On the procedure:
as §1, §2, §3, §4

The subject of another data set is SJSA-1. As to the kind of experiment: Cell proliferation, CTG 3D, 7 d. It counts as cell-based. The note with it: Homo sapiens. On the procedure:
as §1, §2, §3, §4

The test system of the next data set is NCI-H2347. As to the kind of experiment: Cell proliferation, CTG 3D, 7 d. It counts as cell-based. The note with it: Homo sapiens. On the procedure: as §1, §2, §3, §4
For the next data set, the system named is SW 837. Put plainly: Cell proliferation, CTG 3D, 7 d. The conditions noted are these: Homo sapiens, SW837; SW 837, KRAS (G12C). It counts as cell-based. On the procedure:
as §1, §2, §3, §4

In data set [1] the test system is panel of 119 human cancer cell lines with RAS mutations or amplifications. As to the kind of experiment: Cell proliferation analysis, panel of 119 human cancer cell lines. It counts as cell-based. The note with it: RAS addicted cell panels (n=119), read-out: median IC50. How it is done: The objective of this study was to evaluate the extent and degree to which Example 24 or A122 inhibits cell proliferation in a panel of 119 human cancer cell lines with RAS mutations or amplifications across various histological subtypes.
as §1, §2
On Day 7, CellTiter-Glo (CTG) 3D reagent (Promega G9683) was dispensed into each well of a 384-well plate using a multi-drop dispenser (Thermo Scientific 66413). […]
For data analysis, the XL-fit software (Supplier: ID Business Solutions Ltd., Software version: XL fit 5.0) was utilized. The percentage of inhibition was calculated using the formula: Inhibition %=(Max-Sample value)/(Max-Min)×100. […]

In the next data set the test system is SHP-77 xenograft tumor. Put plainly: SHP-77 SCLC xenograft efficacy study. It counts as in vivo. The note with it: for mean tumor growth inhibition (TGI): daily 30 mg/kg p.o., 14 days treatment, SHP-77 xenograft. The text has this:
The purpose of the study was to assess the anti-tumor activity in difficult KRAS mutated xenograft tumor model using SHP-77 (small cell lung cancer, SCLC; ATCC CRL-2195) by examining the time-dependent effects on MAPK pathway modulation and tumor suppression post-administration of Example 24 and reference compound A122.
Female CB17-SCID mice at 6-8 weeks old from Vital River Co., LTD. were used for these studies. In order to generate subcutaneous xenograft tumors, each mouse was inoculated at the right flank with tumor cells in 100 μL of PBS and Matrigel matrix in the right hind flank with 1×10^7 cells. Mouse health was monitored daily, and caliper measurements began when tumors were palpable. Tumor volume measurements were determined utilizing the formula 0.5×L×W^2 in which L refers to length and W refers to width of each tumor. When tumors reached an average tumor volume of approximately 100-200 mm^3 for efficacy study and 300-500 mm^3 for single-dose PK/PD study, mice were randomized into treatment groups.
Mice were treated by oral gavage at 10 mg/kg with either vehicle consisting of DMSO: Solutol HS15: water=10:10:80 (% v/v/v) or compounds (Example 24, A122) in vehicle at indicated doses. For efficacy studies, animals were orally administered daily, tumor volumes and body weights were measured 3 times per week. Study day on efficacy plots indicates the day after which compound treatment was initiated. For single-dose PK/PD study, at the indicated time points after a single dose of Example 24 at the indicated dose levels, tumor samples were collected for PD analysis. RNA extraction and analysis of DUSP6 levels by in tumor tissue were performed as described in Example 134.

Data set [2] can be described thus: Single dose pharmacokinetics (PK) study in female BALB/c mice. It counts as in vivo, mouse. On the procedure: The purpose of this study was to determine the pharmacokinetics of selected compounds following single intravenous bolus or oral gavage administration in female BALB/c mice. Briefly, two groups of female BALB/c mice (available from Shanghai Lingchang Biotechnology Co., Ltd) (N=3/group) were treated with a single dose of compound intravenously at 3 mg/kg (IV) or orally at 30 mg/kg (PO). Blood samples were collected at 5 min (only for IV), […], 30 min, 1 h, 2 h, 4 h, 7 h and 24 h post-dose. Blood samples were placed on ice until centrifugation to obtain plasma samples. The concentration of compound in plasma samples was determined using LC-MS/MS method. The pharmacokinetic parameters were calculated by non-compartmental analysis.

Where [3] appears, read: 30 mg/kg, po, female BALB/c mice.

In general, IC50 refers to the concentration at which inhibition is half-maximal. As usually defined, the Cmax is the maximum level reached in the sampled fluid or tissue. The clearance is the volume of plasma or blood freed of the substance per unit of time. Low values mean a low capacity for elimination, high ones a high capacity for elimination. A word on the AUC(0-t): it is the area under the concentration-time curve up to a stated or last time point.

The structures appear in SMILES notation. Read-outs that look alike come from different tables or passages of the source.

`CO[C@@H](C)c1ncc(N2CCN(C)CC2)cc1-c1c2c3cc(cc4c3n1CCC4)-c1csc(n1)C[C@H](NC(=O)[C@H]1[C@H](C)[C@@H]1C)C(=O)N1CCC[C@H](N1)C(=O)OCC(C)(C)C2` (atropisomer, axis not shown; (M)) [Example 24, (1r,2R,3S)-N-[(7S,13S)-(20M)-20-[2-[(1S)-1-methoxyethyl]-5-(4-methylpiperazin-1-yl)-3-pyridyl]-17,17-dimethyl-8,14-dioxo-15-oxa-4-thia-9,21,30,31-tetrazahexacyclo[23.3.1.1^2,5.1^9,13.0^19,27.0^21,26]hentriaconta-1 (28),2,5 (31), 19,25 (29),26-hexaen-7-yl]-2,3-dimethyl-cyclopropanecarboxamide]: the IC50 was found to be 27000 pM with MDA-MB-231 (MDA-MB-231, KRAS (G13D), read-out: IC50); 100000 pM with Hs-766T (Hs-766T, KRAS (Q61H), read-out: IC50); 900 pM in the data set with ONS-76 (ONS-76, NRAS (p.Q61R), read-out: IC50); 280 pM with SW 900; 45 pM in the data set on RKN; 92 pM in the data set with LCLC-97TM1. Also, the IC50 in the data set on Capan-2 (Capan-2) came to 230 pM; in the data set with NCI-H23, 170 pM; in the data set with PANC-1, 950 pM; in the data set on SJSA-1 (SJSA-1, KRAS (Q61H), read-out: IC50), 2600 pM; in the data set with NCI-H2347 (NCI-H2347, KRAS (L19F), read-out: IC50), 2000 pM; with SW 837 it was 220 pM. Further, in data set [1], the IC50 was 950 pM. Besides, in the data set with SHP-77 xenograft tumor, the “mean tumor growth inhibition (TGI)” value amounted to 70%. Moreover, in the data set with SHP-77 xenograft tumor (daily administration at 30 mg/kg, SHP-77 xenograft mice), the “tolerability based on body weights” value is reported as “well-tolerated”. For the same compound, in [2] (3 mg/kg, iv, female BALB/c mice), the CL is given as 5.3 mL/min/kg. This compound showed an AUC0-last in data set [2] (setting [3]) of 57240 ng·h/mL. This compound yielded a Cmax in [2] (setting [3]) of 10498 ng/mL. In addition, the “fold increase in AUC0-last compared with compound A122” value in [2] (30 mg/kg, po, mouse) amounted to 6 fold. In addition, in [2] (30 mg/kg, po, mouse), the “fold increase in AUC0-last compared with compound A252” value is reported as 4 fold. In data set [2] (30 mg/kg, po, mouse), the “fold increase in Cmax compared with compound A122” value is around 4 fold. Besides, in [2] (30 mg/kg, po, mouse), the “fold increase in Cmax compared with compound A252” value is 4.3 fold.
With `CCn1c(-c2cc(N3CCN(C)CC3)cnc2[C@H](C)OC)c2c3cc(ccc31)-c1csc(n1)C[C@H](NC(=O)[C@H]1C[C@@H]1C)C(=O)N1CCC[C@H](N1)C(=O)OCC(C)(C)O2` [Example A122, reference compound], the IC50 in the data set on MDA-MB-231 (MDA-MB-231) stood at 20000 pM; in the data set with Hs-766T, 100000 pM; in the data set on ONS-76 (ONS-76), 2100 pM; in the data set on SW 900 it was 230 pM; in the data set with RKN, 66 pM; in the data set with LCLC-97TM1, 170 pM. Moreover, the IC50 came to 590 pM in the data set on Capan-2 (Capan-2, KRAS (G12V), read-out: IC50); 330 pM with NCI-H23; 680 pM in the data set on PANC-1; 3100 pM in the data set with SJSA-1 (SJSA-1); 4200 pM in the data set with NCI-H2347 (NCI-H2347); 670 pM in the data set on SW 837. In [1], the IC50 is 1900 pM. For the same compound, the “mean tumor growth inhibition (TGI)” value in the data set on SHP-77 xenograft tumor is on record as 43%. Besides, in data set [2] (female, BALB/c, mouse, plasma, iv, 3 mg/kg, female BALB/c mice), the clearance was determined as 33.9 mL/min/kg. In [2] (female, BALB/c, mouse, plasma, po, 30 mg/kg, female BALB/c mice), the AUC(0-t) came out at 9760 ng·h/mL. Moreover, in data set [2] (female, BALB/c, mouse, plasma, po, 30 mg/kg, po, female BALB/c mice, read-out: Cmax), the Cmax was found to be 2530 ng/mL.
